In ChEMBL document CHEMBL1821636, “Binding inhibitors of the bacterial sliding clamp by design” (J Med Chem, 2011):
Non-standard residues stand in square brackets, D forms with d. Residues, ends and D or L forms follow the SMILES beside them. Phe(3,4-Cl2) = N[C@@H](Cc1ccc(Cl)c(Cl)c1)C(=O)O; pGlu = O=C1CC[C@@H](C(=O)O)N1

Key:
[1] = Inhibition of Escherichia coli polymerase 3alpha/beta subunit homo dimer interaction by plate binding assay
[2] = Binding affinity to Escherichia coli polymerase 3 beta subunit homo dimer by SPR assay

| Compound | IC50 [1] [µM] | IC50 [2] [µM] |
| --- | --- | --- |
| CCC/C(=N\OCc1ccc(-c2ccccc2)cc1)C1C(=O)CC(C)(C2OCC(C)(C)CO2)OC1=O (stereo not given) | 270 |  |
| CCC/C(=N\OC/C(Cl)=C/c1ccc(Cl)cc1)C1C(=O)CC(C)(C)CC1=O | 350 |  |
| CC[C@H](C)[C@H](N)C(=O)NCC(=O)N[C@@H](CCC(N)=O)C(=O)N[C@@H](C)C(=O)N[C@@H](CC(=O)O)C(=O)N[C@@H](CCSC)C(=O)N[C@@H](Cc1ccccc1)C(=O)NCC(=O)N[C@H](C(=O)O)C(C)C | 96 | 3 |
| CC(C)C[C@H](NC(=O)[C@H](CC(=O)O)NC(=O)[C@H](CC(C)C)NC(=O)[C@@H](N)CCC(N)=O)C(=O)N[C@@H](Cc1ccccc1)C(=O)O | 2.6 | 0.62 |
| CC(=O)N[C@@H](CCC(N)=O)C(=O)N[C@@H](CC(C)C)C(=O)N[C@@H](CC(=O)O)C(=O)N[C@@H](CC(C)C)C(=O)N[C@@H](Cc1ccccc1)C(=O)O | 0.07 | 0.4 |
| CC(=O)N[C@@H](CCC(N)=O)C(=O)N[C@@H](CC(C)C)C(=O)N[C@@H](CC(=O)O)C(=O)N[C@@H](CC(C)C)C(=O)N[C@@H](Cc1ccccc1Cl)C(=O)O | 0.034 | 0.117 |
| CC(=O)N[C@@H](CCC(N)=O)C(=O)N[C@@H](CC(C)C)C(=O)N[C@@H](CC(=O)O)C(=O)N[C@@H](CC(C)C)C(=O)N[C@@H](Cc1cccc(Cl)c1)C(=O)O | 0.011 | 0.049 |
| CC(=O)N[C@@H](CCC(N)=O)C(=O)N[C@@H](CC(C)C)C(=O)N[C@@H](CC(=O)O)C(=O)N[C@@H](CC(C)C)C(=O)N[C@@H](Cc1ccc(Cl)cc1)C(=O)O | 0.027 | 0.02 |
| CC(=O)N[C@@H](CCC(N)=O)C(=O)N[C@@H](CC(C)C)C(=O)N[C@@H](CC(=O)O)C(=O)N[C@@H](CC(C)C)C(=O)N[C@@H](Cc1ccc(Cl)c(Cl)c1)C(=O)O | 0.021 | 0.023 |
| CCC(=O)N[C@@H](CCC(N)=O)C(=O)N[C@@H](CC(C)C)C(=O)N[C@@H](CC(=O)O)C(=O)N[C@@H](CC(C)C)C(=O)N[C@@H](Cc1ccc(Cl)c(Cl)c1)C(=O)O | 0.063 | 0.061 |
| CC(C)C[C@H](NC(=O)[C@H](CC(=O)O)NC(=O)[C@H](CC(C)C)NC(=O)[C@H](CCC(N)=O)NC(=O)C(C)(C)C)C(=O)N[C@@H](Cc1ccc(Cl)c(Cl)c1)C(=O)O | 0.062 | 0.069 |
| CC(C)C[C@H](NC(=O)[C@H](CC(=O)O)NC(=O)[C@H](CC(C)C)NC(=O)[C@H](CCC(N)=O)NC(=O)COCc1ccccc1)C(=O)N[C@@H](Cc1ccc(Cl)c(Cl)c1)C(=O)O | 0.067 | 0.337 |
| CC(C)C[C@H](NC(=O)[C@H](CC(=O)O)NC(=O)[C@H](CC(C)C)NC(=O)[C@H](CCC(N)=O)NC(=O)Cc1c[nH]c2ccccc12)C(=O)N[C@@H](Cc1ccc(Cl)c(Cl)c1)C(=O)O | 0.066 | 0.537 |
| COc1ccc(C(=O)N[C@@H](CCC(N)=O)C(=O)N[C@@H](CC(C)C)C(=O)N[C@@H](CC(=O)O)C(=O)N[C@@H](CC(C)C)C(=O)N[C@@H](Cc2ccc(Cl)c(Cl)c2)C(=O)O)c(OC)c1 | 0.042 | 0.027 |
| CC(C)C[C@H](NC(=O)[C@H](CC(=O)O)NC(=O)[C@H](CC(C)C)NC(=O)[C@H](CCC(N)=O)NC(=O)c1ccccc1)C(=O)N[C@@H](Cc1ccc(Cl)c(Cl)c1)C(=O)O | 0.069 | 0.456 |
| CC(C)COC(=O)N[C@@H](CCC(N)=O)C(=O)N[C@@H](CC(C)C)C(=O)N[C@@H](CC(=O)O)C(=O)N[C@@H](CC(C)C)C(=O)N[C@@H](Cc1ccc(Cl)c(Cl)c1)C(=O)O | 0.02 | 0.041 |
| COC(=O)N[C@@H](CCC(N)=O)C(=O)N[C@@H](CC(C)C)C(=O)N[C@@H](CC(=O)O)C(=O)N[C@@H](CC(C)C)C(=O)N[C@@H](Cc1ccc(Cl)c(Cl)c1)C(=O)O | 0.086 | 0.089 |
| NC(CCC(=O)NC(CSCC(=O)c1ccc(Br)cc1)C(=O)NCC(=O)O)C(=O)O (stereo not given) | 210 |  |
| CCCC(C)(c1ccc(OC(=O)Cc2ccc([N+](=O)[O-])cc2)cc1)c1ccc(OC(=O)Nc2ccc([N+](=O)[O-])cc2)cc1 (stereo not given) | 300 |  |
| CCC/C(=N\OCc1ccc(-c2ccc(F)cc2)cc1)C1C(=O)CC(C)(C)C(C#N)C1=O (stereo not given) | 40 |  |
| CSCC[C@H](NC(=O)[C@H](CC(=O)O)NC(=O)[C@H](CC(C)C)NC(=O)[C@H](CCC(N)=O)NC(C)=O)C(=O)N[C@@H](Cc1ccc(Cl)c(Cl)c1)C(=O)O (Ac-QLDM[Phe(3,4-Cl2)]-OH) | 0.037 | 0.033 |
| CC(C)C[C@H](NC(=O)[C@H](CC(=O)O)NC(=O)[C@H](CC(C)C)NC(=O)[C@@H]1CCC(=O)N1)C(=O)N[C@@H](Cc1ccccc1)C(=O)O ([pGlu]LDLF-OH) | 4.5 |  |
| H-IGQADFFGV-OH | 174 |  |
| H-IGQADIFGV-OH | 315 |  |
| H-IGQADLFGV-OH | 56 |  |
| H-IGQADMWGV-OH | 282 |  |
| H-IGQADWFGV-OH | 345 |  |
| H-IGQLSLFGV-OH | 2.3 | 0.55 |
